Assay: excess molar enthalpy (molar enthalpy of mixing); xn = mol fraction of the nth substance listed
Conditions: 100 kPa, Liquid, isothermal titration calorimetry

CCCCCOCCC [1-propoxypentane] + CC#N
Conditions	excess molar enthalpy [kcal/mol]
298.15 K, x2 = 0.031	0.041
298.15 K, x2 = 0.0602	0.0775
298.15 K, x2 = 0.0876	0.108
298.15 K, x2 = 0.1135	0.133
298.15 K, x2 = 0.1379	0.155
298.15 K, x2 = 0.183	0.191
298.15 K, x2 = 0.2236	0.219
298.15 K, x2 = 0.2604	0.24
298.15 K, x2 = 0.2938	0.256
298.15 K, x2 = 0.3243	0.27
298.15 K, x2 = 0.3781	0.288
298.15 K, x2 = 0.424	0.298
298.15 K, x2 = 0.4635	0.304
298.15 K, x2 = 0.5061	0.307
298.15 K, x2 = 0.5424	0.306
298.15 K, x2 = 0.5738	0.304
298.15 K, x2 = 0.6011	0.301
298.15 K, x2 = 0.6296	0.296
298.15 K, x2 = 0.6542	0.29
298.15 K, x2 = 0.6758	0.284
298.15 K, x2 = 0.6979	0.276
298.15 K, x2 = 0.7171	0.269
298.15 K, x2 = 0.734	0.262
298.15 K, x2 = 0.7491	0.255
298.15 K, x2 = 0.7625	0.248
298.15 K, x2 = 0.7644	0.242
298.15 K, x2 = 0.7829	0.232
298.15 K, x2 = 0.8022	0.221
298.15 K, x2 = 0.8226	0.207
298.15 K, x2 = 0.844	0.191
298.15 K, x2 = 0.8666	0.172
298.15 K, x2 = 0.8807	0.159
298.15 K, x2 = 0.8953	0.145
298.15 K, x2 = 0.9104	0.128
298.15 K, x2 = 0.926	0.11
298.15 K, x2 = 0.9421	0.089
298.15 K, x2 = 0.9531	0.0741
298.15 K, x2 = 0.9644	0.0577
298.15 K, x2 = 0.976	0.0399
298.15 K, x2 = 0.9879	0.0207
308.15 K, x2 = 0.0305	0.0427
308.15 K, x2 = 0.0592	0.0799
308.15 K, x2 = 0.0863	0.111
308.15 K, x2 = 0.1118	0.137
308.15 K, x2 = 0.136	0.16
308.15 K, x2 = 0.1806	0.197
308.15 K, x2 = 0.2208	0.225
308.15 K, x2 = 0.2572	0.247
308.15 K, x2 = 0.2904	0.265
308.15 K, x2 = 0.3207	0.278
308.15 K, x2 = 0.3742	0.297
308.15 K, x2 = 0.4199	0.309
308.15 K, x2 = 0.4594	0.315
308.15 K, x2 = 0.502	0.319
308.15 K, x2 = 0.5383	0.319
308.15 K, x2 = 0.5697	0.317
308.15 K, x2 = 0.6022	0.312
308.15 K, x2 = 0.6301	0.307
308.15 K, x2 = 0.6543	0.301
308.15 K, x2 = 0.6756	0.295
308.15 K, x2 = 0.6944	0.288
308.15 K, x2 = 0.7137	0.281
308.15 K, x2 = 0.7173	0.276
308.15 K, x2 = 0.7308	0.273
308.15 K, x2 = 0.7382	0.267
308.15 K, x2 = 0.7459	0.266
308.15 K, x2 = 0.7595	0.259
308.15 K, x2 = 0.7603	0.256
308.15 K, x2 = 0.7838	0.242
308.15 K, x2 = 0.8089	0.226
308.15 K, x2 = 0.8355	0.206
308.15 K, x2 = 0.8524	0.192
308.15 K, x2 = 0.8699	0.176
308.15 K, x2 = 0.8882	0.157
308.15 K, x2 = 0.9072	0.136
308.15 K, x2 = 0.9271	0.112
308.15 K, x2 = 0.9409	0.0938
308.15 K, x2 = 0.955	0.0737
308.15 K, x2 = 0.9695	0.0515
308.15 K, x2 = 0.9845	0.027
